Data taken from patent US7402698B2, “Secondary amino-and cycloamino-cycloalkanol derivatives and methods of their use” (Wyeth, priority 2003, dated 2008).
Structures can show the parent of a compound that is named as a salt.

These molecules were tested against T1, human hNET (Homo sapiens, UniProt P23975) (assay: Norepinephrine (NE) uptake assay in MDCK-Net6 cells). Details: 1 μM test compound, [3H]NE uptake.
T1 construct: expressed in transfected cells; host or cells: MDCK-Net6 (MDCK cells stably transfected with hNET)
T1 sequence (P23975 whole entry): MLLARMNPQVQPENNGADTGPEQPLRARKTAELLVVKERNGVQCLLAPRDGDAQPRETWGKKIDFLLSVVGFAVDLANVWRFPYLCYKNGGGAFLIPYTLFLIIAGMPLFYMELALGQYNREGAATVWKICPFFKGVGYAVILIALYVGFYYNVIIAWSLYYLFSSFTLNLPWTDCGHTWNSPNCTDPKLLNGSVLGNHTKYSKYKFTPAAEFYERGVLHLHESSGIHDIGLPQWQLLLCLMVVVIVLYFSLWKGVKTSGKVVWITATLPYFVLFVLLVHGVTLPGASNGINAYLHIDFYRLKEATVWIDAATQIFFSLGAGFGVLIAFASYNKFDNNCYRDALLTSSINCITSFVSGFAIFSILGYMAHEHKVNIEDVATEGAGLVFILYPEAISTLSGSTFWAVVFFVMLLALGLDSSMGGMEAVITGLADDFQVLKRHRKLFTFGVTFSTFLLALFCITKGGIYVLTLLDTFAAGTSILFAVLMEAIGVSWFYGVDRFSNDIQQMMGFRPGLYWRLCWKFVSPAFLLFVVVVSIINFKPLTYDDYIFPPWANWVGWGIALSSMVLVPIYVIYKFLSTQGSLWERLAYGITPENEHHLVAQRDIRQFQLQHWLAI
Assay type: cell-based
Experimental: MDCK-Net6 cells, stably transfected with human hNET (Pacholczyk, T., R. D. Blakely, and S. G. Amara, Nature, 1991, 350(6316): p. 350-4) were cultured in growth medium containing high glucose DMEM (Gibco, Cat. No. 11995), 10% FBS (dialyzed, heat-inactivated, US Bio-Technologies, Lot FBD1129HI) and 500 μg/ml G418 (Gibco, Cat. No. 10131). Cells were plated at 300,000/T75 flask and cells were split twice weekly. The JAR cell line (human placental choriocarcinoma) was purchased from ATCC (Cat. No. HTB-144). The cells were cultured in growth medium containing RPMI 1640 (Gibco, Cat. No. 72400), 10% FBS (Irvine, Cat. No. 3000), 1% sodium pyruvate (Gibco, Cat. No. 1136) and 0.25% glucose. Cells were plated at 250,000 cells/T75 flask and split twice weekly. For all assays, cells were plated in Wallac 96-well sterile plates (PerkinEimer, Cat. No. 3983498).
On day 1, cells were plated at 3,000 cells/well in growth medium and maintained in a cell incubator (37° C., 5% CO2). On day 2, growth medium was replaced with 200 μl of assay buffer (25 mM HEPES; 120 mM NaCl; 5 mM KCl; 2.5 mM CaCl2; 1.2 mM MgSO4; 2 mg/ml glucose (pH 7.4, 37° C.)) containing 0.2 mg/ml ascorbic acid and 10 μM pargyline. Plates containing cells with 200 μl of assay buffer were equilibrated for 10 minutes at 37° C. prior to addition of compounds. A stock solution of desipramine was prepared in DMSO (10 mM) and delivered to triplicate wells containing cells for a final test concentration of 1 μM. Data from these wells were used to define non-specific NE uptake (minimum NE uptake). Test compounds were prepared in DMSO (10 mM) and diluted in assay buffer according to test range (1 to 10,000 nM). Twenty-five microliters of assay buffer (maximum NE uptake) or test compound were added directly to triplicate wells containing cells in 200 μl of assay buffer. The cells in assay buffer with test compounds were incubated for 20 minutes at 37° C. To initiate the NE uptake, [^3H]NE diluted in assay buffer (120 nM final assay concentration) was delivered in 25 μl aliquots to each well and the plates were incubated for 5 minutes (37° C.). The reaction was terminated by decanting the supernatant from the plate. The plates containing cells were washed twice with 200 μl assay buffer (37° C.) to remove free radioligand. The plates were then inverted, left to dry for 2 minutes, then reinverted and air-dried for an additional 10 minutes. The cells were lysed in 25 μl of 0.25 N NaOH solution (4° C.), placed on a shake table and vigorously shaken for 5 minutes. After cell lysis, 75 μl of scintillation cocktail was added to each well and the plates were sealed with film tape. The plates were returned to the shake table and vigorously shaken for a minimum of 10 minutes to ensure adequate partitioning of organic and aqueous solutions. The plates were counted in a Wallac Microbeta counter (PerkinEimer) to collect the raw cpm data.
For each experiment, a data stream of cpm values collected from the Wallac Microbeta counter was downloaded to a Microsoft Excel statistical application program. Calculations of EC50 values were made using the transformed-both-sides logistic dose responses program written by Wyeth Biometrics Department. The statistical program uses mean cpm values from wells representing maximum binding or uptake (assay buffer) and mean cpm values from wells representing minimum binding or uptake ((1 μM desipramine (hNET) or 1 μM paroxetine (hSERT)). Estimation of the EC50 value was completed on a log scale and the line was fit between the maximum and minimum binding or uptake values. All graphic data representation was generated by normalizing each data point to a mean percent based on the maximum and minimum binding or uptake values. The EC50 values reported from multiple experiments were calculated by pooling the raw data from each experiment and analyzing the pooled data as one experiment.

In order of rising inhibition at 1 µM:
1. OC1(C(CNCc2ccc(C(F)(F)F)cc2)c2cccc(Br)c2)CCCCC1 (centres unmarked) [Example 90, 1-(1-(3-bromophenyl)-2-{[4-(trifluoromethyl)benzyl]amino}ethyl)cyclohexanol hydrochloride]  15%
2. OC1(C(CN2CCCCC2)c2cccc(Cl)c2)CCCCC1 (centres unmarked) [Example 85, 1-[1-(3-chlorophenyl)-2-piperidin-1-ylethyl]cyclohexanol hydrochloride]  17%
3. OC1(C(CN2CCOCC2)c2ccc(Cl)c(Cl)c2)CCC1 (centres unmarked) [Example 83, 1-[1-(3,4-dichlorophenyl)-2-morpholin-4-ylethyl]cyclobutanol hydrochloride]  19%
4. OC1(C(CNCc2ccc(F)cc2)c2ccc(Cl)c(Cl)c2)CCCCC1 (centres unmarked) [Example 80, 1-{1-(3,4-dichlorophenyl)-2-[(4-fluorobenzyl)amino]ethyl}cyclohexanol hydrochloride]  20%
5. OC1(C(CNCc2ccc(C(F)(F)F)cc2)c2ccc(Cl)c(Cl)c2)CCCCC1 (centres unmarked) [Example 75, 1-(1-(3,4-dichlorophenyl)-2-{[4-(trifluoromethyl)benzyl]amino}ethyl)cyclohexanol hydrochloride]  22%
6. OC1(C(CNC2CCCCC2)c2cccc(Cl)c2)CCCCC1 (centres unmarked) [Example 67, 1-[1-(3-chlorophenyl)-2-(cyclohexylamino)ethyl]cyclohexanol hydrochloride]  26%
7. OC1(C(CNCc2ccccc2)c2ccc3ccccc3c2)CCCCC1 (centres unmarked) [Example 62, 1-[2-(benzylamino)-1-(2-naphthyl)ethyl]cyclohexanol hydrochloride]  30%
8. OC1(C(CNCc2ccccc2)c2cccc(Br)c2)CCCCC1 (centres unmarked) [Example 61, 1-[2-(benzylamino)-1-(3-bromophenyl)ethyl]cyclohexanol hydrochloride]  31%
9. OC1(C(CNCc2cccc(Cl)c2)c2cccc(Br)c2)CCCCC1 (centres unmarked) [Example 60, 1-{1-(3-bromophenyl)-2-[(3-chlorobenzyl)amino]ethyl}cyclohexanol hydrochloride]  33%
10. OC1(C(CN2CCOCC2)c2cccc(Cl)c2)CCCCC1 (centres unmarked) [Example 57, 1-[1-(3-chlorophenyl)-2-morpholin-4-ylethyl]cyclohexanol hydrochloride]  35%
11. OC1(C(CNC2CCCc3ccccc32)c2cccc(Br)c2)CCCCC1 (centres unmarked) [Example 55, 1-[1-(3-bromophenyl)-2-(1,2,3,4-tetrahydronaphthalen-1-ylamino)ethyl]cyclohexanol hydrochloride]  38%
12. OC1(C(CNC2CCCCC2)c2cccc(Br)c2)CCCCC1 (centres unmarked) [Example 48, 1-[1-(3-bromophenyl)-2-(cyclohexylamino)ethyl]cyclohexanol hydrochloride]  40%
13. OC1(C(CNCc2ccc(F)cc2)c2cccc(C(F)(F)F)c2)CCCCC1 (centres unmarked) [Example 47, 1-{2-[(4-fluorobenzyl)amino]-1-[3-(trifluoromethyl)phenyl]ethyl}cyclohexanol hydrochloride]  40%
14. CN1CCC(O)(C(CNCc2ccccc2)c2cccc(Br)c2)CC1 (centres unmarked) [Example 44, 4-[2-(benzylamino)-1-(3-bromophenyl)ethyl]-1-methylpiperidin-4-ol dihydrochloride]  44%
15. OC1(C(CNC2CCCCC2)c2ccc(Cl)c(Cl)c2)CCCCC1 (centres unmarked) [Example 42, 1-[2-(cyclohexylamino)-1-(3,4-dichlorophenyl)ethyl]cyclohexanol hydrochloride]  48%
16. OC1(C(CNCc2ccccc2)c2cccc(Cl)c2)CCCCC1 (centres unmarked) [Example 41, 1-[2-(benzylamino)-1-(3-chlorophenyl)ethyl]cyclohexanol hydrochloride]  51%
17. OC1(C(CNCc2ccccc2)c2cccc(Br)c2)CCC1 (centres unmarked) [Example 40, 1-[2-(benzylamino)-1-(3-bromophenyl)ethyl]cyclobutanol hydrochloride]  55%
18. OC1(C(CNCc2ccccc2)c2ccc(Cl)c(Cl)c2)CCCCC1 (centres unmarked) [Example 38, 1-[2-(benzylamino)-1-(3,4-dichlorophenyl)ethyl]cyclohexanol hydrochloride]  56%
19. OC1(C(CN2CCCC2)c2cccc(Cl)c2)CCCCC1 (centres unmarked) [Example 34, 1-[1-(3-chlorophenyl)-2-pyrrolidin-1-ylethyl]cyclohexanol hydrochloride]  65%
20. OC1(C(CNCc2cccc(Cl)c2)c2ccc3ccccc3c2)CCCCC1 (centres unmarked) [Example 33, 1-[2-[(3-chlorobenzyl)amino]-1-(2-naphthyl)ethyl]cyclohexanol hydrochloride]  69%
21. CN1CCC(O)(C(CNCc2ccccc2)c2ccc(Cl)c(Cl)c2)CC1 (centres unmarked) [Example 15, 4-[2-(benzylamino)-1-(3,4-dichlorophenyl)ethyl]-1-methylpiperidin-4-ol dihydrochloride]  89%
22. OC1(C(CNCc2ccccc2)c2ccc3ccccc3c2)CCC1 (centres unmarked) [Example 12, 1-[2-(benzylamino)-1-(2-naphthyl)ethyl]cyclobutanol hydrochloride]  90%
23. OC1(C(CNCc2ccccc2)c2ccc(Cl)c(Cl)c2)CCC1 (centres unmarked) [Example 10, 1-[2-(benzylamino)-1-(3,4-dichlorophenyl)ethyl]cyclobutanol hydrochloride]  92%
24. OC1(C(CN2CCNCC2)c2cccc(Cl)c2)CCCCC1 (centres unmarked) [Example 1, 1-[1-(3-chlorophenyl)-2-piperazin-1-ylethyl]cyclohexanol dihydrochloride]  93%

These molecules were tested against T1, human hNET in the same assay as above. Details: 30 μM test compound (stated in cell), [3H]NE uptake.
Assay type: cell-based

In order of falling inhibition at 30 µM:
1. OC1(C(CNCc2ccc(C(F)(F)F)cc2)c2cccc(Cl)c2)CCCCC1 (centres unmarked) [Example 105, 1-(1-(3-chlorophenyl)-2-{[4-(trifluoromethyl)benzyl]amino}ethyl)cyclohexanol hydrochloride]  99%
2. OC1(C(CN2CCOCC2)c2ccc(Cl)c(Cl)c2)CCCCC1 (centres unmarked) [Example 112, 1-[1-(3,4-dichlorophenyl)-2-morpholin-4-ylethyl]cyclohexanol hydrochloride]  80%
3. OC1(C(CNCc2ccc(F)cc2)c2cccc(Br)c2)CCCCC1 (centres unmarked) [Example 98, 1-{1-(3-bromophenyl)-2-[(4-fluorobenzyl)amino]ethyl}cyclohexanol hydrochloride]  69%
4. OC1(C(CN2CCOCC2)c2cccc(Br)c2)CCC1 (centres unmarked) [Example 95, 1-[1-(3-bromophenyl)-2-morpholin-4-ylethyl]cyclobutanol hydrochloride]  67%
5. OC1(C(CNCc2ccc(F)cc2)c2ccc3ccccc3c2)CCCCC1 (centres unmarked) [Example 113, 1-[2-[(4-fluorobenzyl)amino]-1-(2-naphthyl)ethyl]cyclohexanol hydrochloride]  55%
6. OC1(C(CN2CCOCC2)c2cccc(Br)c2)CCCCC1 (centres unmarked) [Example 99, 1-[1-(3-bromophenyl)-2-morpholin-4-ylethyl]cyclohexanol hydrochloride]  55%
7. CN1CCC(O)(C(CN2CCOCC2)c2ccc(Cl)c(Cl)c2)CC1 (centres unmarked) [Example 114, 4-[1-(3,4-dichlorophenyl)-2-morpholin-4-ylethyl]-1-methylpiperidin-4-ol dihydrochloride]  52%
8. CN1CCC(O)(C(CN2CCOCC2)c2cccc(Br)c2)CC1 (centres unmarked) [Example 116, 4-[1-(3-bromophenyl)-2-morpholin-4-ylethyl]-1-methylpiperidin-4-ol dihydrochloride]  6%
